Measured values from US20150011569A1, “NOVEL P13K p110 INHIBITORS AND METHODS OF USE THEREOF” (PHILADELPHIA HEALTH & EDUCATION CORPORATION d/b/a Drexel …, priority 2011, published 2015).

How the values were obtained:
[1] = test system: virulent influenza virus strain; set-up: species or system mice; conditions: mouse, in vivo
influenza virus = assay: In vitro anti-viral assay in A549 cells (plaque assay, viral mRNA); type: cell-based
PI3K p110δ = molecular target: T1, PI3K p110δ (Homo sapiens, UniProt O00329); assay: PI3K isoform inhibition in vitro, p110δ; type: biochemical; conditions: class I PI3K isoform δ
T1 construct: purchased Reaction Biology Corporation (RBC) Malvern, Pa
From the text: (§1) A PI3K assay can be used to evaluate the activity of the prototype molecule. Reaction Biology Corporation (RBC) Malvern, Pa. offers Class I PI3Ks (PI3Kα, PI3Kβ, PI3Kγ, and PI3Kδ). The PIP3 product is detected by displacement of biotin-PIP3 from an energy transfer complex consisting of Europium labeled anti-GST monoclonal antibody, a GST-tagged pleckstrin homology (PH) domain, biotinylated PIP3 and Streptavidin-Allophycocyanin (APC). Excitation of Europium in the complex results in an energy transfer to the APC and a fluorescent emission at 665 nm. The PIP3 product formed displaces biotin-PIP3 from the complex resulting in a loss of energy transfer and thus a decrease in signal.

PI3K p110β = molecular target: T2, PI3K p110β (Homo sapiens, UniProt P42338); assay: PI3K isoform inhibition in vitro, p110β; type: biochemical; conditions: class I PI3K isoform β
T2 construct: purchased Reaction Biology Corporation (RBC) Malvern, Pa
From the text: as §1

PI3K p110γ = molecular target: T3, PI3K p110γ (Homo sapiens, UniProt P48736); assay: PI3K isoform inhibition in vitro, p110γ; type: biochemical; conditions: class I PI3K isoform γ
T3 construct: purchased Reaction Biology Corporation (RBC) Malvern, Pa
From the text: as §1

PI3K p110α = molecular target: T4, PI3K p110α (Homo sapiens, UniProt P42336); assay: PI3K isoform inhibition in vitro, p110α; type: biochemical; conditions: class I PI3K isoform α
T4 construct: purchased Reaction Biology Corporation (RBC) Malvern, Pa
From the text: as §1

T2 sequence (P42338 whole entry, canonical isoform): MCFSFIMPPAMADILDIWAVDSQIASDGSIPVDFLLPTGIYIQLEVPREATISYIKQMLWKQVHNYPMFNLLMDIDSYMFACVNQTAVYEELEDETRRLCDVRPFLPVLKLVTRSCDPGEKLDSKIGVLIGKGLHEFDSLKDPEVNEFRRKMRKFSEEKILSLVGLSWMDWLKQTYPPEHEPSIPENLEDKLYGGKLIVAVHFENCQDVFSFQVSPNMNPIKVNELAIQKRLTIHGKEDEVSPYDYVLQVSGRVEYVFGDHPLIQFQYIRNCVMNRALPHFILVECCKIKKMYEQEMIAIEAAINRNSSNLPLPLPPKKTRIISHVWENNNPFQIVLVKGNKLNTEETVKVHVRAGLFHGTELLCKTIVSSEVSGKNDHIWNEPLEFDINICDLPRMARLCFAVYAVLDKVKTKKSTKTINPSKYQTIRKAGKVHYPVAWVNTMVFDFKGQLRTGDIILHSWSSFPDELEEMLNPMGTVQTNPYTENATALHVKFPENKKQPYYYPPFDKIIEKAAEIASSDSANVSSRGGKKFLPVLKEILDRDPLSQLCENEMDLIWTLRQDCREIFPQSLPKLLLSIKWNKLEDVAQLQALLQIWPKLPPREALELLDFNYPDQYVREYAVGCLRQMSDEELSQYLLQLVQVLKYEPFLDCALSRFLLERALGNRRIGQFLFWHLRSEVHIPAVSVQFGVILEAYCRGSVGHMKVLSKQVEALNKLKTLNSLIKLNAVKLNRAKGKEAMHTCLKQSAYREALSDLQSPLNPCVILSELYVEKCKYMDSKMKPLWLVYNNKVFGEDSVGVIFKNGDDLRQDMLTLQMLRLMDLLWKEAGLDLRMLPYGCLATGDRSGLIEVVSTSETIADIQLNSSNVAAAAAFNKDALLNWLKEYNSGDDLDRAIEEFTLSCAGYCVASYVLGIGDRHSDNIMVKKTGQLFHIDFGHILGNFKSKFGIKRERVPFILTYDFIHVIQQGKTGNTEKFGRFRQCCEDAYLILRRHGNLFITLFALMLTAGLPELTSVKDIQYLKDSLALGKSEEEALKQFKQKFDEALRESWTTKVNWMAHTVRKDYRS
T2 sequence (P27986 whole entry partner, canonical isoform): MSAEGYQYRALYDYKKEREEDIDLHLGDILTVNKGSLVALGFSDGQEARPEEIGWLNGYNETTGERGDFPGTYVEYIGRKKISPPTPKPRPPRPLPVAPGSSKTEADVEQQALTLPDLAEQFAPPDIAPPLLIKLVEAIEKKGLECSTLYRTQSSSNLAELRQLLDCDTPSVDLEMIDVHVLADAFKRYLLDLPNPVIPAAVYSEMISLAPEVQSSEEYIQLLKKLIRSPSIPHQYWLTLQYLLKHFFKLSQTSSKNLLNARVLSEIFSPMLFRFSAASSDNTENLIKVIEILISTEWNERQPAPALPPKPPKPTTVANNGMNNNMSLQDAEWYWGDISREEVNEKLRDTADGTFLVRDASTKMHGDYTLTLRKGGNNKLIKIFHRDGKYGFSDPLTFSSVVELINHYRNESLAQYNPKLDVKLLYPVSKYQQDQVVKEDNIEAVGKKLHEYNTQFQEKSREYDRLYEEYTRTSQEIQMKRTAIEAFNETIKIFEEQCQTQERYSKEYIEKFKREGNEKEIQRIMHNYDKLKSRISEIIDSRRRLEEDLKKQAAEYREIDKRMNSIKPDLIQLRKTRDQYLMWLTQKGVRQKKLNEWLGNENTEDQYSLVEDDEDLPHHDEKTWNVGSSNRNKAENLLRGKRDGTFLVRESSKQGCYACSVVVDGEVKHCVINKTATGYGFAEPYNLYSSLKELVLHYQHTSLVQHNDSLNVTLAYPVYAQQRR
T3 sequence (P48736 whole entry, canonical isoform): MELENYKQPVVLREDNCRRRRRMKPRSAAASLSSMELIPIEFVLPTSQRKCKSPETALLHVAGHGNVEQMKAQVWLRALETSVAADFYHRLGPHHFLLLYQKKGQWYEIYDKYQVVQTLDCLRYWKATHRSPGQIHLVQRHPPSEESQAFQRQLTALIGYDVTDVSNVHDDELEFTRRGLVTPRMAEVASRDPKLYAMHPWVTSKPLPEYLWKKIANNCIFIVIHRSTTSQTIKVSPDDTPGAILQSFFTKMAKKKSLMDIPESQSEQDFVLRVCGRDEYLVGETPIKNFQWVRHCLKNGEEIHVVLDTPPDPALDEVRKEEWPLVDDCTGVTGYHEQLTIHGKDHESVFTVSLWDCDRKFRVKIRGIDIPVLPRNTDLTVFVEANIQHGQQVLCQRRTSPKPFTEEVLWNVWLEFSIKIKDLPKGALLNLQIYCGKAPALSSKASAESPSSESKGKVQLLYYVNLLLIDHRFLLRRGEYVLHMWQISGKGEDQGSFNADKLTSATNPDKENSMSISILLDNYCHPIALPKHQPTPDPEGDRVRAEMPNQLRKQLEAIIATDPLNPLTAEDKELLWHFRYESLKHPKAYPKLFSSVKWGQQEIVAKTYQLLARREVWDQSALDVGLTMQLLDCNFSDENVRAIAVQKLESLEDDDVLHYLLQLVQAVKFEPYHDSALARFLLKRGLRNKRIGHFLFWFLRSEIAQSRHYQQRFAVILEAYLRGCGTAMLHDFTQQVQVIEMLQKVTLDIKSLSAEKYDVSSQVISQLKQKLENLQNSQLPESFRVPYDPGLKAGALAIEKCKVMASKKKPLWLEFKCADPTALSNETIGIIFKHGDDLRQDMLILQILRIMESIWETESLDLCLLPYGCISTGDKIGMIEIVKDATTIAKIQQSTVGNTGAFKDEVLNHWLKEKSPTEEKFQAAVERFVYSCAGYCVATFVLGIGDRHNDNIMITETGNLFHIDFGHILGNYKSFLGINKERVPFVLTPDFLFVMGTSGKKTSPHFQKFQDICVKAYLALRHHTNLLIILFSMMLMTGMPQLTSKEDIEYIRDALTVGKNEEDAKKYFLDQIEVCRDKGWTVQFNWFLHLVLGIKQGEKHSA
T1 sequence (O00329 whole entry, canonical isoform): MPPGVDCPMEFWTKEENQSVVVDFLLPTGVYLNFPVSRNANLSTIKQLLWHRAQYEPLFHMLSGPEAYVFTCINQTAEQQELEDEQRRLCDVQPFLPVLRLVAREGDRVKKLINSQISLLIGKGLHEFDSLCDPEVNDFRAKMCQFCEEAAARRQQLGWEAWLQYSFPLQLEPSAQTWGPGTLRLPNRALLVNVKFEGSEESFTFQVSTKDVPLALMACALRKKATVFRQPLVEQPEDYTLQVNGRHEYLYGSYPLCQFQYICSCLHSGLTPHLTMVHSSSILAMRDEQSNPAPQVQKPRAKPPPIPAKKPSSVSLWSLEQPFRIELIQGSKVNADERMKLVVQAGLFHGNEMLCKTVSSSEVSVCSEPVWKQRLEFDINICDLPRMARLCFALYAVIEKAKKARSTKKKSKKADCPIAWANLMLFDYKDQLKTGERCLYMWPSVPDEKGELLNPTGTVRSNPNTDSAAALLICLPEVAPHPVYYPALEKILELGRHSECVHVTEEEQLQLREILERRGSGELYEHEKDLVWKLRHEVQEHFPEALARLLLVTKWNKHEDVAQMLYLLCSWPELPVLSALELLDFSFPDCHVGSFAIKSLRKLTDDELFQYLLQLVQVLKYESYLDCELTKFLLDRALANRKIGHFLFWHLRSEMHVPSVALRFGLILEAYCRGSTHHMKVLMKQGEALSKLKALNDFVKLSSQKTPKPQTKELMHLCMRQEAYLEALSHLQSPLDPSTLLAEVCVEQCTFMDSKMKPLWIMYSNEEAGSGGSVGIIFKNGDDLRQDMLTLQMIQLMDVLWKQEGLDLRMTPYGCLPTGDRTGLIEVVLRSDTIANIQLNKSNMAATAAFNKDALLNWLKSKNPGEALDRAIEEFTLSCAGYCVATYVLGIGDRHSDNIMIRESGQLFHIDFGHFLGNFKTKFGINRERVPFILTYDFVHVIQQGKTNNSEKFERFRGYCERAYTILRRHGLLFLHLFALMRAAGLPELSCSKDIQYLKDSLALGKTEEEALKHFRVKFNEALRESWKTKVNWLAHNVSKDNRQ
T1 sequence (P27986 whole entry partner, canonical isoform): as the sequence (P27986 whole entry partner, canonical isoform) above
T4 sequence (P42336 whole entry, canonical isoform): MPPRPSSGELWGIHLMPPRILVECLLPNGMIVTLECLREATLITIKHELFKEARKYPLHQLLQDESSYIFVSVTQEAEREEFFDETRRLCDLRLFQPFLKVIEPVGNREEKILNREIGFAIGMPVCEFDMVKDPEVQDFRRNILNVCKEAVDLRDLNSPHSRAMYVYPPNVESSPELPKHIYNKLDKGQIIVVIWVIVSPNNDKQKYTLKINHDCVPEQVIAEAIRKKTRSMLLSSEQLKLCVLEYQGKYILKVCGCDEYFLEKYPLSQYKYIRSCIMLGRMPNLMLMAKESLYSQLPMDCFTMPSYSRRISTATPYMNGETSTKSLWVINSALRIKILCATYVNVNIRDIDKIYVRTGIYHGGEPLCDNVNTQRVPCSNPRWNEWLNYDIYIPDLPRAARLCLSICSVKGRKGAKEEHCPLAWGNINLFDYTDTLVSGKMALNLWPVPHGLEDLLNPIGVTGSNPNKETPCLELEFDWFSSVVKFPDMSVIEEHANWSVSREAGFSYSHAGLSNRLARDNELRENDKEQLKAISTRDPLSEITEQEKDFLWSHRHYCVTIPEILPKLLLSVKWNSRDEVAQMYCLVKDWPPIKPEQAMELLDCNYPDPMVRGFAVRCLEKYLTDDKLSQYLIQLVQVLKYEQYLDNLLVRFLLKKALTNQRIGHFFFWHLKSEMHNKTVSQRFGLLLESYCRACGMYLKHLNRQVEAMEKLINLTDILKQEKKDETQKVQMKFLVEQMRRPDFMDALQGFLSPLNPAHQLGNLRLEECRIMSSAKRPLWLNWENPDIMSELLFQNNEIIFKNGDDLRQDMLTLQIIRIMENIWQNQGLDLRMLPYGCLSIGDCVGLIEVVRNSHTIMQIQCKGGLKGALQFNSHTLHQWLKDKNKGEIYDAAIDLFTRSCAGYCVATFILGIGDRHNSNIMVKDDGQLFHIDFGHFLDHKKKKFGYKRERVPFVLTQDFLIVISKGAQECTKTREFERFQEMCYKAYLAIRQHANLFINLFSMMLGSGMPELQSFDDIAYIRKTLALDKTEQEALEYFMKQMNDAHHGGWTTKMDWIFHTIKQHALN
T4 sequence (P27986 whole entry partner, canonical isoform): as the sequence (P27986 whole entry partner, canonical isoform) above

SMILES	protection from lethal challenge [1]	viral replication in A549 lung epithelial cells (influenza virus)	IC50 (PI3K p110δ) [µM]	IC50 (PI3K p110β) [µM]	IC50 (PI3K p110γ) [µM]	IC50 (PI3K p110α) [µM]
Cc1ccccc1-n1c(Cn2cnc3c(N)ncnc32)nc2cccc(C)c2c1=O [IC87114]	protected animals from lethal challenge	decreased	–	–	–	–
Cc1ccccc1-c1nc2ncccc2cc1Cn1cnc2c(N)ncnc21 [compound 7b, 9-((2-(2-methylphenyl)-1,8-naphthyridin-3-yl)methyl)-9H-purin-6-amine]	–	–	1.3	> 100	40	> 100
